Data on 2 compounds can be found in patent US20240261418A1, “SOS1 DEGRADING AGENT AND PREPARATION METHOD THEREFOR AND APPLICATION THEREOF” (SHANGHAI LEADINGTAC PHARMACEUTICAL CO. LTD., priority 2021, published 2024).

The experiment has as its system KRAS G12D mutant human metastatic pancreatic adenocarcinoma cells AsPC-1. In words: 3D cell proliferation inhibition assay, AsPC-1. Conditions: ASPC1, 168 h, 7 days, CTG. The experiment is classed as cell-based. From the text:
Test Example 4: 3D Cell Proliferation Inhibition Assay
The inhibitory effect of the compounds on the proliferation of 3D cells was investigated on KRAS G12C mutant human non-small cell lung cancer cells NCI-H358 (ATCC or Stem Cell Bank, Chinese Academy of Sciences), KRAS G12D mutant human metastatic pancreatic adenocarcinoma cells AsPC-1 (ATCC), KRAS G12V mutant human lung adenocarcinoma cells NCI-H441 (ATCC), and KRAS G13D mutant human colorectal adenocarcinoma epithelial cells DLD-1 (ATCC). The specific procedures were as follows:
200 nL of compound solution diluted in a gradient was added to corresponding microwells of a 384-well low-adsorption microwell plate (Corning, 3657) using an Echo sonic pipetting system (Labcyte, Echo 550), so that the final concentration of the test compound in the reaction system was in a range of 20000 nM-0.008 nM. Then 40 μL of cells at a certain density were added to the corresponding microplate. In addition to test wells for the test compounds, both a DMSO control well and a medium control well were set, with the DMSO control well containing DMSO and cells and the medium well containing only medium. […] The plate was incubated at room temperature for 30 min and read on a microplate reader EnVision using the chemiluminescence program. […]

SMILES strings stand for the structures. pIC50: −log10 of the molar value.

`COc1cc2nc(C)nc(N[C@H](C)c3cc(-c4c(Cl)cccc4CN(C)C)cs3)c2cc1[C@H]1CC[C@H](C(=O)N2CCN(CC3CCC4(CC3)CCN(C(=O)c3ccc(Cl)c(N5CCC(=O)NC5=O)c3)CC4)CC2)CC1` [Example 1, 1-(2-chloro-5-(9-((4-((1R,4R)-4-(4-(((R)-1-(4-(2-chloro-6-((dimethylamino)methyl)phenyl)thien-2-yl)ethyl)amino)-7-methoxy-2-methylquinazolin-6-yl)cyclohexane-1-carbonyl)piperazin-1-yl)methyl)-3-azaspiro[5.5]undecane-3-carbonyl)phenyl)dihydropyrimidine-2,4(1H,3H)-dione] gave a negative logarithm of the IC50 (pIC50) of 7.52 to 7.82.
Compound `COc1cc2nc(C)nc(N[C@H](C)c3cc(-c4c(Cl)cccc4CN(C)C)cs3)c2cc1[C@H]1CC[C@H](C(=O)N2CCC(CCOCC3CCN(C(=O)c4ccc(Cl)c(N5CCC(=O)NC5=O)c4)CC3)CC2)CC1` [Example 5, 1-(2-chloro-5-(4-((2-(1-((1R,4R)-4-(4-(((R)-1-(4-(2-chloro-6-((dimethylamino)methyl)phenyl)thien-2-yl)ethyl)amino)-7-methoxy-2-methylquinazolin-6-yl)cyclohexane-1-carbonyl)piperidin-4-yl)ethoxy)methyl)piperidine-1-carbonyl)phenyl)dihydropyrimidine-2,4(1H,3H)-dione] had a pIC50 of 6.00 to 7.00.
